# Reference: US7915263B2, “Aminopyridine derivatives having aurora A selective inhibitory action” (Banyu Pharmaceutical Co., Ltd., priority 2006, dated 2011)
# What was measured:
# [1] = target: T1, His-tagged human Aurora A (Homo sapiens, UniProt O14965); assay: Aurora A inhibitory activity (IMAP fluorescence polarization); assay type: biochemical; conditions: 20 μM ATP, 30° C., 120 minutes
# T1 construct: made in house; host or cells: Escherichia coli BL21-CodonPlus(DE3)-RIL
# T1 sequence (O14965 1-403): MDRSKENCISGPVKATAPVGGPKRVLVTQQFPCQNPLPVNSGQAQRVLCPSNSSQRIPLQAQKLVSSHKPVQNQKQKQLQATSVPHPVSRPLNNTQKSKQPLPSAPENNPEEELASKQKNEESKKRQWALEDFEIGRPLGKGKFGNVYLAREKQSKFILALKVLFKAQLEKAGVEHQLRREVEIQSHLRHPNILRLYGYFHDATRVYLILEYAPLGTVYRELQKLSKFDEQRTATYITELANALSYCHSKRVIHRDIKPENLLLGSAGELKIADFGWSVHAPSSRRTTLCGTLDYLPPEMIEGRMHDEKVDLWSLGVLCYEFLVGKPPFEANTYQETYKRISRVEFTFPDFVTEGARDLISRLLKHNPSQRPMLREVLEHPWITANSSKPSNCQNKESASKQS
# Text: cDNA of N-terminal His-tagged human Aurora A was integrated into an expression vector, which was then highly expressed in Escherichia coli BL21-CodonPlus(DE3)-RIL cells. The Escherichia coli was harvested and lysed, and then the His-tagged human Aurora A protein was applied onto a nickel chelate column and eluted from the column with imidazole. The active fractions were desalted with a desalting column to give a purified enzyme.
# Concretely, the phosphorylation reaction and the detection were carried out as follows:
# The phosphorylation reaction was conducted using 384 well plate, and the reaction volume was 10 μl/well. The reaction buffer is comprised of 50 mM Tris-chloride buffer (pH 7.4), 15 mM magnesium acetate, and 0.2 mM ethylenediamine-N,N,N′,N′-tetraacetic acid (EDTA). […]
# Thereafter, in order to terminate and detect the reaction, 30 μl of the IMAP (registered trademark) binding reagent (IMAP Progressive Binding Reagent, R7284) that had been diluted (1:400) in the 1× IMAP binding buffer A (IMAP Progressive Binding Buffer A, 5× stock, R7282) was added to each well. The solution stood still for 60 minutes in the dark, and then fluorescence polarization was measured using a high-end microplate reader (excitation wavelength: 485 nm; emission wavelength: 520 nm). […]
# [2] = target: T2, GST-tagged human Aurora B(AurB)/His-tagged human INCENP complex proteins (Homo sapiens, UniProt Q96GD4); assay: Aurora B inhibitory activity (Method A, IMAP kit); assay type: biochemical; conditions: 40 μM ATP, 25° C., 45 minutes
# T2 construct: GST; purchased Cama Biosciences, Inc. (so in the source)
# Method: Using the same, the phosphorylation reaction was conducted in accordance with a partially revised protocol attached to the kit, and then the phosphorylation of the substrate was detected using the IMAP technology.
# For the phosphorylation reaction, 384 well plate was used, and the reaction volume was 10 μl/well. The composition of the reaction buffer (assay buffer) is comprised of 20 mM of HEPES buffer (pH 7.4), 0.01% Tween-20, and 2 mM of dithiothreitol (DTT). Thereto, AurB/INCENP complex protein, 100 nM of the substrate, and 40 μM of ATP, and 1 mM of magnesium salt were added, and then the reaction was conducted at 25° C. for 45 minutes. Thereafter, in order to terminate and detect the reaction, 30 μl of the IMAP (registered trademark) binding reagent (IMAP Progressive Binding Reagent, R7284) that had been diluted (1:400) in the 1× IMAP binding buffer A (IMAP Progressive Binding Buffer A, 5× stock, R7282) was added to each well.
# The compound to be tested was added to the reaction system such that a dilution series of the compound in DMSO was prepared, and then 0.5 μL of this solution was added for the testing to each well. Each control well was provided by adding 0.5 μL of DMSO to the well in place of the DMSO solution containing the compound to be tested.
# [3] = system: Human cervical cancer cells (HeLa S3); assay: Cell growth inhibitory effect, WST-8 method; assay type: cell-based; conditions: 72 h, HeLa S3, three days incubation, read-out: Cell growth inhibitory effect (HeLaS3) (IC50)
# Method: Fetal calf serum (FCS) was purchased from Moregate Biotech, and DMEM medium was purchased from Invitrogen Corp. WST-8 was purchased from Kishida Chemical Co., Ltd.
# (§1) Human cervical cancer cells (HeLa S3) were obtained from the American Type Culture Collection (ATCC).
# Cells were suspended in a DMEM medium containing 10% FCS, and the cell suspension was dispensed to a 96-well plastic plate at a rate of 750 cells/100 microliters per well. The plate was incubated overnight in 5% CO2-95% air at 37° C. A drug was subjected to graded dilution in dimethylsulfoxide and further diluted with a DMEM medium containing 10% FCS. Then, the dilution was dispensed to the plate on which cells had been disseminated, at a rate of 100 microliters per well.
# [4] = system: Human cervical cancer cells (HeLa S3); assay: Effect by combined use of drugs in cells (docetaxel), WST-8 method; assay type: cell-based
# Method: Fetal calf serum (FCS) was purchased from Moregate Biotech, DMEM medium from Invitrogen Corp., docetaxel (tradename: Taxere) from Sigma-Aldrich, Inc., and WST-8 from Kishida Chemical Co., Ltd.
# as §1
# Cells were suspended in a DMEM medium containing 10% FCS, and the cell suspension was dispensed to two 96-well plastic plates at a rate of 750 cells/100 microliters per well. The plates were incubated overnight in 5% CO2-95% air at 37° C. A drug was subjected to graded dilution in dimethylsulfoxide and further diluted with DMSO or with a DMEM medium containing 10% FCS and also containing 0.6 nM docetaxel. Then, the dilutions were each dispensed to one of the plates on which cells had been disseminated, at a rate of 100 microliters per well. The final concentration of docetaxel at this stage was 0.3 nM. Also, the concentrations in the case of sole administration of the compound according to the invention were 0.003, 0.01, 0.03, 0.1, 0.3, 1, 3 and 10 μM. The plates were incubated for further three days in 5% CO2-95% air at 37° C. Cell growth after incubation was measured by the WST-8 method (H. Tominaga, et al., Anal. Commun., 36, 47-50 (1999)). Here, the WST-8 method refers to a method in which 20 microliters of a WST-8 reagent solution is added to each well, incubation is conducted at 37° C. for 60 minutes, the plate is stirred, and the amount of formazan produced is measured by a colorimetric method to determine the inhibitory rate of the drug. The growth inhibitory effects of docetaxel and of the compound according to the invention were determined, with the value obtained in sole treatment of DMSO being defined as 0%.
# T2 sequence (Q96GD4 whole entry): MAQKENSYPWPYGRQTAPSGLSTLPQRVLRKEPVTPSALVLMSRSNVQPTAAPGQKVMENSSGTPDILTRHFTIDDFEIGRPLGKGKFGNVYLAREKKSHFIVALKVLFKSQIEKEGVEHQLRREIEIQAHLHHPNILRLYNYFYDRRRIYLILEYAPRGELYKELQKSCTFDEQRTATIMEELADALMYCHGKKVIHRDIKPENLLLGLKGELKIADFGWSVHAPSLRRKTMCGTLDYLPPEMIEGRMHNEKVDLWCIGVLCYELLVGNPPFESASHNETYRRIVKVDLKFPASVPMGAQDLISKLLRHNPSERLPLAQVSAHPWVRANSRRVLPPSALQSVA
# T2 sequence (Q9NQS7 803-916 partner limits assumed): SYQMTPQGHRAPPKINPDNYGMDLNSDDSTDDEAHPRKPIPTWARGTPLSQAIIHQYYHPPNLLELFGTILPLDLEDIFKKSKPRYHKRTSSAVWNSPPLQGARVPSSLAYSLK
IC50 [1] [nM],IC50 [2] [nM],IC50 [3] [nM],Structure (SMILES),"inhibition at 0.1 µM ([4]; Homo sapiens, HeLa S3, compound 0.1 μM alone, read-out: Cell growth inhibitory effect by sole administration of the compound of Example (%)) [%]","inhibition at 0.3 µM ([4]; Homo sapiens, HeLa S3, compound 0.3 μM alone, read-out: Cell growth inhibitory effect by sole administration of the compound of Example (%)) [%]",Cell growth inhibitory effect by combined administration of docetaxel and the compound of Example (%) ([4]; compound 0.1 μM + docetaxel 0.3 nM),Cell growth inhibitory effect by combined administration of docetaxel and the compound of Example (%) ([4]; compound 0.3 μM + docetaxel 0.3 nM)
2.4,220,,"Fc1c(O[C@H]2CC[C@](Cc3cccc(Nc4cc[nH]n4)n3)(c3nncs3)CC2)cccc1C(F)(F)F [Example 27, 6-((trans-4-(2-fluoro-3-(trifluoromethyl)phenoxy)-1-(1,3,4-thiadiazol-2-yl)cyclohexyl)methyl)-N-1H-pyrazol-3-ylpyridin-2-amine]",,,,
0.19,670,670,"O=c1[nH]nc([C@]2(Cc3cncc(Nc4cc[nH]n4)n3)CC[C@@H](Oc3cccc(Cl)c3F)CC2)o1 [Example 29, 5-(trans-4-(3-chloro-2-fluorophenoxy)-1-((6-(1H-pyrazol-3-ylamino)pyrazin-2-yl)methyl)cyclohexyl)-1,3,4-oxadiazol-2(3H)-one]",11.3,39.9,79.0,92.9
